Assay results: patent publication US8003779B2, “Compositions and methods for studying and treating inflammatory diseases and disorders” (University of Rochester, priority 2005, dated 2011)

How the values were obtained:
293HGLVP/CrePr cells = assay: RU486-induced CrePr activation of IL-1βXAT in 293HGLVP/CrePr cells; type: cell-based
Experimental: The IL-1β^XAT gene was transiently transfected into 293HGLVP/CrePr cells and the expression of IL-1β and lacZ were evaluated following RU486 (10^-7 M) administration.
IL-1β expression was assessed at the mRNA level by reverse transcriptase PCR (RT-PCR), and lacZ expression was evaluated by X-gal histochemistry.

mice = type: in vivo; conditions: perinatal systemic administration
[1] = literature (Loddick and Rothwell 1996; Yamasaki et al. 1995); cited from earlier work
[2] = test system: primary rat endothelial cells; assay: IL-1β regulation of inflammation-related genes in primary rat endothelial cells (mRNA, zymography); type: cell-based; conditions: murine IL-1β 10 ng/mL, over 72 hours
Experimental: The effects of IL-1β were evaluated in vitro utilizing primary rat endothelial cell cultures as a representative rodent cell type. In this experiment, murine IL-1β (10 ng/mL) was administered to cultured primary cells, and subsequently examined for the regulation of several inflammation-related genes at the transcript level over the course of 72 hours. These molecules include (A) the inducible isoform of cyclooxygenase (COX-2), intercellular adhesion molecule-1 (ICAM-1) and monocyte chemoattractant protein-1 (MCP-1), as well as (B) the collagenase-A (MMP-2) and -B (MMP-9). Panel (C) depicts enzyme activity levels of MMP-2 and MMP-9 as evaluated by zymography.
Moreover, a plethora of inflammation-related genes are in turn induced by IL-1β, leading to exacerbation of the inflammatory response. IL-1βregulates down-stream inflammatory genes, including the inducible isoform of cyclooxygenase (COX-2) and the intercellular adhesion molecule-1 (ICAM-1), the monocyte chemoattractant protein-1 (MCP-1), as well as collagenases A (MMP-2) and B (MMP-9). ICAM-1 and MCP-1 are molecules associated with the recruitment of circulating immune cells at the site of injury (i.e. neutrophils and monocytes, respectively), whereas MMP-2 and MMP-9 are collagenases associated with tissue destruction during arthritis and injury. Primary rat endothelial cells were employed as a representative rodent model to investigate the effects of IL-1β on the regulation of ICAM-1, MCP-1, MMP-2 and MMP-9 at the transcriptional level (mRNA) as well as the enzyme activity level (zymography). FIG. 5 summarizes the regulation of these genes over time.

CC#C[C@]1(O)CC[C@H]2[C@@H]3CCC4=CC(=O)CCC4=C3[C@@H](c3ccc(N(C)C)cc3)C[C@@]21C [RU486, mifepristone]
secreted IL-1β protein in supernatant media (ELISA) (293HGLVP/CrePr cells; RU486 10^-7 M): significantly higher levels | IL-1β and lacZ mRNA (RT-PCR) (293HGLVP/CrePr cells; RU486 10^-7 M, IL-1βXAT-transfected cells): up-regulation | number of X-gal positive cells (293HGLVP/CrePr cells; RU486 in culture media): significant increase

FIV(lacZ): FIV vector carrying the reporter gene lacZ, construct 12750 bp
duration of stable lacZ reporter expression (mice): over 3 months

IL-1ra: IL-1 receptor antagonist, competes for receptor binding
tissue damage / injury in stroke models [1]: significantly attenuates tissue injury

B1: IL-1β: pro-inflammatory cytokine; murine IL-1β (10 ng/mL) in FIG. 5 (protein, UniProt P10749 118-269, looked up)
Interleukin-1 beta: VPIRQLHYRLRDEQQKSLVLSDPYELKALHLNGQNINQQVIFSMSFVQGEPSNDKIPVALGLKGKNLYLSCVMKDGTPTLQLESVDPKQYPKKKMEKRFVFNKIEVKSKVEFESAEFPNWYISTSQAEHKPVFLGNNSGQDIIDFTMESVSS
tissue damage / injury in stroke models [1]: exacerbates damage | MMP-2 enzyme activity (zymography) [2]: increased with time | MMP-2 mRNA levels [2]: not altered | synthesis of COX-2, MCP-1, ICAM-1 and MMP-9 [2]: upregulated
